Consider 26 compounds from US20250332173A1, “COMPOUNDS AND METHODS FOR MODULATING NUCLEIC ACID SPLICING” (REMIX THERAPEUTICS INC., priority 2021, published 2025).

Each structure is given as a SMILES string.

In this experiment the test system is Target C. In words: HiBiT protein abundance assay, Target C HiBiT K562 cell line. It is filed as cell-based. Conditions: Homo sapiens; HiBiT lytic detection, modified K562 cells, 24 hours, top dose 10 μM; read-out: Effect on protein abundance, Target C (IC50). The method, boiled down:
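HiBiT knock-in K562 cells (10,000/well) were treated for 24 h at 37 °C with a 10-point 3-fold dilution series, top final concentration 10 μM, DMSO ≤0.25%. Lytic HiBiT luminescence was read, normalized to unmodified K562 and DMSO-treated controls, and IC50 was interpolated from a four-parameter logistic fit.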
A general note: The HiBiT peptide binds its large partner to form an active luciferase.
What is called IC50 is the point on the concentration scale where inhibition reaches its midpoint. For the compound `COc1cc(-c2ccc3c(=O)n([C@H]4CCN[C@@H](C)C4)ccc3n2)nn2cc(C)nc12` [Compound 1519, 2-(8-methoxy-2-methyl-imidazo[1,2-b]pyridazin-6-yl)-6-[(2S,4S)-2-methyl-4-piperidyl]-1,6-naphthyridin-5-one], the IC50 is below 0.1 µM.

As to `Cc1cn2nc(-c3ccc4c(=O)n([C@@H]5CCN(C)[C@H](C)C5)ncc4n3)cc(C)c2n1` [Compound 1527], the IC50 is 0.1 to 1 µM. For `Cc1cn2nc(-c3ccc4c(=O)n([C@H]5CCN(C)[C@@H](C)C5)ncc4n3)cc(C)c2n1` [Compound 1528, 2-(2,8-dimethylimidazo[1,2-b]pyridazin-6-yl)-6-(1,2-dimethyl-4-piperidyl)pyrido[2,3-d]pyridazin-5-one] the value was 0.1 to 1 µM; for `CCN1CC[C@@H](n2ncc3nc(-c4cc(C)c5nc(C)cn5n4)ccc3c2=O)CC12CC2` [Compound 1530], below 0.1 µM.

As to `CCN1CC[C@H](n2ncc3nc(-c4cc(C)c5nc(C)cn5n4)ccc3c2=O)CC12CC2` [Compound 1531], the IC50 fell in the range of 0.1 to 1 µM. In the case of `Cc1cn2nc(-c3ccc4c(=O)n([C@H]5CCN(C)C6(CC6)C5)ncc4n3)cc(C)c2n1` [Compound 1533], the IC50 was in the range of 0.1 to 1 µM.

Turning to `Cc1cn2nc(-c3ccc4c(=O)n([C@@H]5CCN(C)C6(CC6)C5)ncc4n3)cc(C)c2n1` [Compound 1534], the IC50 was below 0.1 µM. On to `Cc1cn2nc(-c3ccc4c(=O)n(C5CCN(CCF)C6(CC6)C5)ncc4n3)cc(C)c2n1` (centres unmarked) [Compound 1542, 2-(2,8-dimethylimidazo[1,2-b]pyridazin-6-yl)-6-[4-(2-fluoroethyl)-4-azaspiro[2.5]octan-7-1]pyrido[2,3-d]pyridazin-5-one], for which the IC50 lay in the range of 0.1 to 1 µM. The same measure for `Cc1cn2nc(-c3ccc4c(=O)n(C5CCN(CC6CC6)C6(CC6)C5)ncc4n3)cc(C)c2n1` (centres unmarked) [Compound 1543, 6-[4-(cyclopropylmethyl)-4-azaspiro[2.5]octan-7-yl]-2-(2,8-dimethylimidazo[1,2-b]pyridazin-6-yl)pyrido[2,3-d]pyridazin-5-one]: 0.1 to 1 µM; for `Cc1cn2nc(-c3ccc4c(=O)n([C@@H]5CCNC6(CCC6)C5)ncc4n3)cc(C)c2n1` [Compound 1545, 6-[(8R)-5-azaspiro[3.5]nonan-8-yl]-2-(2,8-dimethylimidazo[1,2-b]pyridazin-6-yl)pyrido[2,3-d]pyridazin-5-one]: below 0.1 µM; for `Cc1cn2nc(-c3ccc4c(=O)n(C5CCNC6(CCC6)C5)ncc4n3)cc(C)c2n1` (centres unmarked) [Compound 1553]: 1 to 10 µM. The same measure for `Cn1cc2ccc(-n3cnc4ccc(NC5CCNCC5)cc4c3=O)cc2n1` [Compound 2164]: above 10 µM. The same measure for `Cc1cc(-c2ccc3ncn(C4CCNCC4)c(=O)c3c2)cc2cn(C)nc12` [Compound 2169]: above 10 µM; for `Cc1cc(-c2ccc3ncn(C4CCN(C)CC4)c(=O)c3c2)cc2cn(C)nc12` [Compound 2170]: above 10 µM. On to `CN1CCC(Nc2ccc3ncn(-c4ccc5nn(C)cc5c4)c(=O)c3c2)CC1` [Compound 2171], for which the IC50 was above 10 µM. The same measure for `Cc1cn2cc(-n3cnc4ccc(N5CCNCC5)cc4c3=O)cc(F)c2n1` [Compound 2195]: above 10 µM; for `Cn1cc2cc(-n3cnc4ccc(N5CCNCC5)cc4c3=O)cc(F)c2n1` [Compound 2196]: above 10 µM; for `Cc1cn2cc(-n3cnc4ccc(N5CCN(C)CC5)cc4c3=O)cc(F)c2n1` [Compound 2197]: 1 to 10 µM.

Take `CN(c1ccc2ncn(-c3cc(F)c4nn(C)cc4c3)c(=O)c2c1)C1CCNCC1` [Compound 2198]: the IC50 was above 10 µM.

With `CN1CCC(N(C)c2ccc3ncn(-c4cc(F)c5nn(C)cc5c4)c(=O)c3c2)CC1` [Compound 2199], the IC50 was above 10 µM.

Regarding `Cc1cn2cc(-n3cnc4ccc(N(C)C5CCNCC5)cc4c3=O)cc(F)c2n1` [Compound 2200], the half-maximal inhibitory concentration (IC50) is above 10 µM. The same measure for `Cc1cn2nc(-n3cnc4ccc(N5CCNCC5)cc4c3=O)cc(C)c2n1` [Compound 2201]: above 10 µM. In the case of `Cc1cn2nc(-n3cnc4ccc(N5CCN(C)CC5)cc4c3=O)cc(C)c2n1` [Compound 2202], the concentration for half-maximal inhibition (IC50) lay in the range of 1 to 10 µM. For `Cc1cc(-c2ccc3c(=O)[nH]c(N4CCNCC4)nc3c2)cc2cn(C)nc12` [Compound 2211] the value was above 10 µM; for `Cc1cc(-c2ccc3c(=O)[nH]c(N4CCN(C)CC4)nc3c2)cc2cn(C)nc12` [Compound 2212], above 10 µM; for `Cc1cc(-c2nc3cc(N4CCNCC4)ccc3c(=O)[nH]2)cc2cn(C)nc12` [Compound 2213], above 10 µM.
